Marks after values point to notes of the source that are not given here.
What was measured:
[1] = system: Artemia cysts; experiment: Hatching percentage of Artemia cysts sprayed with silver nitrate / thiosulphate (Example 1); format: in vivo, Artemia (GSL-strain); details: 24h incubation
Description: (§1) 1000 g commercially available dry cysts from Great Salt Lake (GSL-strain) were sprayed with 20 ml solution to which 2.43g or 2.02g AgNO3 is added and another 1000 g cysts were sprayed with 20 ml to which 14.20g or 11.81g thiosulphate (Na2S2O3.5(H2O)) is added (in a ratio of 4 mol thiosulphate to 1 mol AgNO3) to obtain respectively 1.50 or 1.25 mg Ag/l in the hatching medium, after incubation of 2g treated cysts therein. The cysts were gently mixed for 15-30 minutes while spraying. Both fractions were mixed together in a ratio of (1:1). The cysts were vacuum packed and stored at different temperatures (4°C, 20°C and 30°C). Cysts from the same batch were kept as a control. After 4 weeks they were incubated at 2g (treated) cysts /l, following standard procedures, i.e.: salinity of 25 g/I, temperature of 30°C. Continuous illumination and air bubbling was provided. After 24 hours of incubation, samples of the hatching medium were taken for determination of the total count on Marine agar (MA) and Vibrio sp. on TCBS (specific growth medium for Vibrio sp.). The hatching percentage (percentage of cysts that hatch on the total of full cysts) of the cysts was calculated. Tabel 1: Hatching percentage (HP) of cysts, number of colony forming units (cfu) per ml of hatching medium on MA and on TCBS after 24h incubation of Artemia cysts of control cysts and cysts with different amounts of AgNO3 (expressed as mg Ag/l hatching medium). Each value is the average of three counts.

[2] = system: marine heterotrophic bacterial population; experiment: Total bacterial count on Marine agar in hatching medium (Example 1); format: cell-based; details: 24h incubation
Description: as §1

[3] = system: Vibrio sp.; experiment: Vibrio count on TCBS in hatching medium (Example 1); format: cell-based; details: 24h incubation
Description: as §1

[4] = system: Artemia cysts; experiment: Hatching percentage of treated cysts after storage at different temperatures (Example 2, Figures 1a/1b); format: in vivo, Artemia (GSL-strain); details: AgNO3 (and thiosulphate) applied on cysts; 1 to 8 weeks of storage at 20° C or more
Description: 1000 g commercially available dry cysts (GSL-strain) were sprayed with a 20 ml solution to which 2.43g AgNO3 and another 1000g cysts were sprayed 20 ml solution to which 14.20g thiosulphate (Na2S2O3.5(H2O)) was added. The cysts were gently mixed for 15 - 30 minutes while spraying. Both fractions of cysts were mixed together in a ratio of [1:1]. The cysts were vacuum packed and stored at different temperatures (4°C, 20°C and 30°C) for 1 to 8 weeks. At different time intervals (1 week, 2 weeks, 4 weeks and 8 weeks) they were incubated at 2g (treated) cysts /l following standard procedures, i.e.: salinity of 25 g/l, temperature of 30°C. Continuous illumination and air bubbling was provided. After 24 hours, the hatching percentage (percentage of cysts that hatch on the total of full cysts) was calculated. These values were compared with a former batch of cysts on which 1.4 mg/l of the bactericidal isothiazolin derivative comprising 5-chloro-2-methyl-4-isothiazolin-3-one and 2-methyl-4-isothiazolin-3-one was applied.

[5] = system: Artemia; experiment: Hatching percentage with silver in hatching medium, with or without thiosulphate (Example 3); format: in vivo, Artemia (GSL-cysts); details: for Hatching percentage (%) Without thiosulphate / Hatching percentage (%) With thiosulphate: 24 hours; for Hatching percentage (%) With thiosulphate: silver nitrate:thiosulphate 1:4
Description: (§2) GSL-cysts were incubated at 2g cysts /l, following standard procedures, i.e.: salinity of 25 g/l, temperature of 30°C. Continuous illumination and air bubbling was provided. Different concentrations of silver nitrate were added to the hatching medium. Thiosulphate was added to compare its effect on the hatching of Artemia and reduction of Vibrio sp. When thiosulphate was added, the molecular ratio of silver nitrate to thiosulphate was (1:4). After 24 hours, samples of the hatching medium were taken for determination of Vibrio sp. on TCBS and hatching percentage was calculated. Table 2: Effect of thiosulphate in combination with Ag, on hatching percentage of Artemia and on the amount of Vibrio species in the hatching medium

[6] = system: Vibrio species; experiment: Vibrio counts on TCBS in hatching medium, silver with or without thiosulphate (Example 3); format: cell-based, Vibrio sp.; details: 24 hours; for Vibrio counts on TCBS (cfu/ml) With thiosulphate: silver nitrate:thiosulphate 1:4
Description: as §2

[7] = system: Vibrio sp.; experiment: Vibrio reduction by silver combined with berberine during hatching (Example 4, Figure 2); format: cell-based; details: 0.1 mg Ag per liter, with or without thiosulphate, no berberine
Description: GSL-cysts were incubated at 2g cysts /l, following standard procedures, i.e.: salinity of 25 g/l, temperature of 30°C. Continuous illumination and air bubbling was provided. Silver nitrate, thiosulphate and berberine were added in different concentrations to the hatching medium. After 24 hours, the hatching percentage was calculated and samples of the hatching medium were taken for determination of Vibrio sp. on TCBS.

[8] = system: Vibrio sp.; experiment: Vibrio count on TCBS in enrichment medium (Example 5); format: cell-based; details: after 24 hours enrichment; compared to the non treated culture medium
Description: Artemia nauplii Instar I were harvested from the hatching tank, rinsed and incubated in cylindrical conical tanks with 90L water with a salinity of 35 g/l and a temperature of 28°C. The pH was controlled at 7.5. Stocking density of the nauplii was 300 nauplii / ml. The enrichment product 'Easy DHA Selco' which is a commercially available Seleco™-type enrichment product was added at the start of the enrichment at 600 mg/l. The dose of the silver (silver thiosulphate) in three of the six enrichment tanks was 1.5 mg Ag /l. In the three other tanks, Ag was not added. Samples of Artemia nauplii to analyse the levels of HUFA were taken at the end of the enrichment, thus 24 hours after adding the enrichment diets. At the same time, samples of the enrichment medium were taken for determination of Vibrio sp. on TCBS. Table 3: Highly unsaturated fatty acid levels (mg/g DW) of Artemia nauplli Instar II and bacterial concentrations (cfu/ml) on marine agar and TCBS of the enrichment medium after 24 hours enrichment with and without silver.

[9] = system: pathogenic Vibrio sp.; experiment: Vibrio in shrimp tanks fed Artemia nauplii enriched in the presence of Ag; format: in vivo; details: Artemia nauplii enriched in the presence of Ag fed for 14 days to larval shrimp; versus control enrichment
[10] = system: mussel; details: natural seawater; cited from earlier work
[11] = system: oyster embryos; details: natural seawater; cited from earlier work
[12] = system: crab larvae; details: natural seawater; cited from earlier work
[13] = 1.25 mg/l Ag (AgNO3 + thiosulphate on cysts), storage 20°C
[14] = 1.25 mg/l Ag (AgNO3 + thiosulphate on cysts), storage 30°C
[15] = 1.50 mg/l Ag (AgNO3 + thiosulphate on cysts), storage 4°C
[16] = 1.50 mg/l Ag (AgNO3 + thiosulphate on cysts), storage 20°C
[17] = 1.50 mg/l Ag (AgNO3 + thiosulphate on cysts), storage 30°C
[18] = 1.25 mg/l Ag (AgNO3 + thiosulphate on cysts), storage 4°C

O=[N+]([O-])[O-].[Ag+] [Ag, silver nitrate]
HP (%) [1, 13]: 80.3%
HP (%) [1, 14]: 82.6%
HP (%) ([1]; 1.25 mg/l Ag in hatching medium (AgNO3 + thiosulphate 1:4 mol on cysts), cysts stored 4 weeks at 4°C): 84.5%
HP (%) [1, 15]: 81.4%
HP (%) [1, 16]: 82.2%
HP (%) [1, 17]: 81.2%
MA (cfu/ml) [2, 18]: 2.69 x 10^7 cfu/ml
MA (cfu/ml) [2, 13]: 1.29 x 10^7 cfu/ml
MA (cfu/ml) [2, 14]: 3.17 x 10^7 cfu/ml
MA (cfu/ml) [2, 15]: 1.20 x 10^7 cfu/ml
MA (cfu/ml) [2, 16]: 8.07 x 10^6 cfu/ml
MA (cfu/ml) [2, 17]: 6.55 x 10^6 cfu/ml
TCBS (cfu/ml) [3, 18]: <3.00 x 10^2 cfu/ml
TCBS (cfu/ml) [3, 13]: 5.66 x 10^3 cfu/ml
TCBS (cfu/ml) [3, 14]: <3.00 x 10^2 cfu/ml
TCBS (cfu/ml) [3, 15]: <3.00 x 10^2 cfu/ml
TCBS (cfu/ml) [3, 16]: <3.00 x 10^2 cfu/ml
TCBS (cfu/ml) [3, 17]: <3.00 x 10^2 cfu/ml
Hatching percentage [4]: did not decrease
Hatching percentage (%) Without thiosulphate ([5]; Ag 0.1 mg/l as silver nitrate): 77.1%
Hatching percentage (%) With thiosulphate ([5]; Ag 0.1 mg/l): 79.9%
Hatching percentage (%) Without thiosulphate ([5]; Ag 0.25 mg/l as silver nitrate): 76.6%
Hatching percentage (%) With thiosulphate ([5]; Ag 0.25 mg/l): 78.6%
Hatching percentage (%) Without thiosulphate ([5]; Ag 0.5 mg/l as silver nitrate): 78.3%
Hatching percentage (%) With thiosulphate ([5]; Ag 0.5 mg/l): 76.0%
Hatching percentage (%) Without thiosulphate ([5]; Ag 0.75 mg/l as silver nitrate): 73.9%
Hatching percentage (%) Without thiosulphate ([5]; Ag 1.0 mg/l as silver nitrate): 72.5%
Hatching percentage (%) With thiosulphate ([5]; Ag 1.0 mg/l): 74.4%
Hatching percentage (%) Without thiosulphate ([5]; Ag 1.25 mg/l as silver nitrate): 75.5%
Hatching percentage (%) Without thiosulphate ([5]; Ag 1.5 mg/l as silver nitrate): 71.1%
Hatching percentage (%) With thiosulphate ([5]; Ag 1.5 mg/l): 76.3%
Hatching percentage (%) Without thiosulphate ([5]; Ag 1.75 mg/l as silver nitrate, hatching is delayed (maximal HP not reached after 24 h)): 69.9* %
Hatching percentage (%) Without thiosulphate ([5]; Ag 2.0 mg/l as silver nitrate, hatching is delayed (maximal HP not reached after 24 h)): 65.0* %
Hatching percentage (%) With thiosulphate ([5]; Ag 2.0 mg/l): 74.3%
Hatching percentage (%) Without thiosulphate ([5]; Ag 2.5 mg/l as silver nitrate, hatching is delayed (maximal HP not reached after 24 h)): 50.0* %
Hatching percentage (%) With thiosulphate ([5]; Ag 2.5 mg/l): 75.6%
Hatching percentage (%) Without thiosulphate ([5]; Ag 5.0 mg/l as silver nitrate, hatching is delayed (maximal HP not reached after 24 h)): 28.0* %
Hatching percentage (%) With thiosulphate ([5]; Ag 5.0 mg/l): 77.6%
Hatching percentage (%) Without thiosulphate ([5]; Ag 10.0 mg/l as silver nitrate): 0%
Hatching percentage (%) With thiosulphate ([5]; Ag 10.0 mg/l): 77.1%
hatching of the Artemia naupllii ([5]; more than 2 mg/l till at least 10 mg/l Ag, thiosulphate 4 mol per 1 mol AgNO3): still not affected
hatching of Artemia nauplii ([5]; very high concentrations (> 10 mg/l), without thiosulphate): do not hatch at all
Vibrio counts on TCBS (cfu/ml) Without thiosulphate ([6]; Ag 0.1 mg/l as silver nitrate): 7.96 x 10^6 cfu/ml
Vibrio counts on TCBS (cfu/ml) With thiosulphate ([6]; Ag 0.1 mg/l): 1.47 x 10^5 cfu/ml
Vibrio counts on TCBS (cfu/ml) Without thiosulphate ([6]; Ag 0.25 mg/l as silver nitrate): 1.79 x 10^5 cfu/ml
Vibrio counts on TCBS (cfu/ml) With thiosulphate ([6]; Ag 0.25 mg/l): 1.70 x 10^4 cfu/ml
Vibrio counts on TCBS (cfu/ml) Without thiosulphate ([6]; Ag 0.5 mg/l as silver nitrate): 3.48 x 10^4 cfu/ml
Vibrio counts on TCBS (cfu/ml) With thiosulphate ([6]; Ag 0.5 mg/l): <3.00 x 10^2 cfu/ml
Vibrio counts on TCBS (cfu/ml) Without thiosulphate ([6]; Ag 0.75 mg/l as silver nitrate): 6.23 x 10^2 cfu/ml
Vibrio counts on TCBS (cfu/ml) Without thiosulphate ([6]; Ag 1.0 mg/l as silver nitrate): 4.80 x 10^2 cfu/ml
Vibrio counts on TCBS (cfu/ml) With thiosulphate ([6]; Ag 1.0 mg/l): <3.00 x 10^2 cfu/ml
Vibrio counts on TCBS (cfu/ml) Without thiosulphate ([6]; Ag 1.25 mg/l as silver nitrate): <3.00 x 10^2 cfu/ml
Vibrio counts on TCBS (cfu/ml) Without thiosulphate ([6]; Ag 1.5 mg/l as silver nitrate): <3.00 x 10^2 cfu/ml
Vibrio counts on TCBS (cfu/ml) With thiosulphate ([6]; Ag 1.5 mg/l): <3.00 x 10^2 cfu/ml
Vibrio counts on TCBS (cfu/ml) Without thiosulphate ([6]; Ag 1.75 mg/l as silver nitrate): <3.00 x 10^2 cfu/ml
Vibrio counts on TCBS (cfu/ml) Without thiosulphate ([6]; Ag 2.0 mg/l as silver nitrate): <3.00 x 10^2 cfu/ml
Vibrio counts on TCBS (cfu/ml) With thiosulphate ([6]; Ag 2.0 mg/l): <3.00 x 10^2 cfu/ml
Vibrio counts on TCBS (cfu/ml) With thiosulphate ([6]; Ag 2.5 mg/l): <3.00 x 10^2 cfu/ml
Vibrio counts on TCBS (cfu/ml) With thiosulphate ([6]; Ag 5.0 mg/l): <3.00 x 10^2 cfu/ml
Vibrio counts on TCBS (cfu/ml) With thiosulphate ([6]; Ag 10.0 mg/l): <3.00 x 10^2 cfu/ml
decrease of Vibrio sp. in the hatching medium [7]: usually not sufficient to decrease the Vibrio sp.
Vibrio count on TCBS [8]: significantly less
pathogenic Vibrio sp. in the shrimp tanks [9]: a reduction in pathogenic Vibrio sp. was noticed
toxicity levels (EC50) [10]: 0.014 mg Ag/l
toxicity levels (EC50) [11]: 0.022 mg Ag/l
toxicity levels (EC50) [12]: 0.055 mg Ag/l
